Reference: patent publication US9573899B2, “USP7 inhibitor compounds and methods of use” (Genentech, Inc., priority 2015, dated 2017)
Each block holds one compound with its values, some of them ahead of it.

Tests used:
[1] = molecular target: T1, USP7, full-length, native C-Terminus (Homo sapiens, UniProt Q93009); experiment: Biochemical USP7 assay with Ubiquitin-Rho110 substrate, compounds pre-incubated with USP7 (USP7_Ub-Rho preInc); details: compounds pre-mixed with USP7, 1 hour incubation, before substrate; read-out: USP7 Ub-Rho preInc (IC50)
T1 construct: USP7, full-length, native C-Terminus, 0.2 nM
Description: (§1) Biochemical USP7 assays using Ubiquitin-Rho110 as a substrate: The final assay conditions were as follows: The Reaction Buffer consisted of: 50 mM Tris (pH 7.5), 0.01% (v/v) Triton X-100, 2.5 mM Dithiothreitol, 0.1% (w/v) bovine gamma globulin (Sigma cat #G5009-25G); USP7, full-length, native C-Terminus, 0.2 nM; the substrate, Ubiquitin-Rho110 (Boston Biochem cat #U-555), 1 uM. Reactions were carried out for 1 hour at room temperature, in black 20 μL volume polystyrene ProxiPlate 384 F Plus® (PerkinElmer cat #6008260).
(§2) Test compounds, including a control USP7 inhibitor (Ub-aldehyde, Boston Biochem cat #U-201) were serially diluted in DMSO, in 384 well clear V-bottom polypropylene plates (Greiner cat #781280). Compounds in DMSO were diluted 10-fold into Reaction Buffer, to achieve 3-fold the final desired concentration. The substrate, Ubiquitin-Rho110 (Boston Biochem cat #U-555), was prepared at 3 μM (3-fold the final concentration) and 5 ul was dispensed into the reaction plate. 5 ul of the compounds (diluted in Reaction Buffer at 3-fold the final concentration) were transferred to the reaction plate. 5 ul of 0.6 nM USP7 (diluted in Reaction Buffer at 3-fold the final concentration) was transferred to the reaction plate to initiate the reaction. After 1 hour incubation at room temperature the reaction was quenched by the addition of 5 ul of 400 mM acetic acid. The enzymatic product was measured by quantifying the fluorescence signal of cleaved Rhodamine-110 using excitation at 485 nm and emission at 535 nm. When pre-incubation of USP7 with compounds was required, the order of addition of reagents was modified to pre-mix the compounds with USP7 (with a 1 hour incubation period), prior to the addition of the substrate and the initiation of the reaction period. Percentage inhibition values were calculated relative to a no enzyme control and a uninhibited enzyme control. Curve fitting and IC50 calculations were carried out using Genedata Screener software.

[2] = molecular target: T1, USP7, full-length, native C-Terminus; experiment: Biochemical USP7 assay with Ubiquitin-Rho110 substrate (USP7_Ub-Rho110 Fluor); details: no pre-incubation; 1 hour reaction at room temperature; read-out: USP7 Ub-Rho110 Fluor (IC50)
Description: as §1, §2

[3] = molecular target: T2, USP47 (Homo sapiens, UniProt Q96K76); experiment: Ub-Rho110 DUB assay, Table 2, USP47; assay type: biochemical
T2 sequence (Q96K76 1-1375): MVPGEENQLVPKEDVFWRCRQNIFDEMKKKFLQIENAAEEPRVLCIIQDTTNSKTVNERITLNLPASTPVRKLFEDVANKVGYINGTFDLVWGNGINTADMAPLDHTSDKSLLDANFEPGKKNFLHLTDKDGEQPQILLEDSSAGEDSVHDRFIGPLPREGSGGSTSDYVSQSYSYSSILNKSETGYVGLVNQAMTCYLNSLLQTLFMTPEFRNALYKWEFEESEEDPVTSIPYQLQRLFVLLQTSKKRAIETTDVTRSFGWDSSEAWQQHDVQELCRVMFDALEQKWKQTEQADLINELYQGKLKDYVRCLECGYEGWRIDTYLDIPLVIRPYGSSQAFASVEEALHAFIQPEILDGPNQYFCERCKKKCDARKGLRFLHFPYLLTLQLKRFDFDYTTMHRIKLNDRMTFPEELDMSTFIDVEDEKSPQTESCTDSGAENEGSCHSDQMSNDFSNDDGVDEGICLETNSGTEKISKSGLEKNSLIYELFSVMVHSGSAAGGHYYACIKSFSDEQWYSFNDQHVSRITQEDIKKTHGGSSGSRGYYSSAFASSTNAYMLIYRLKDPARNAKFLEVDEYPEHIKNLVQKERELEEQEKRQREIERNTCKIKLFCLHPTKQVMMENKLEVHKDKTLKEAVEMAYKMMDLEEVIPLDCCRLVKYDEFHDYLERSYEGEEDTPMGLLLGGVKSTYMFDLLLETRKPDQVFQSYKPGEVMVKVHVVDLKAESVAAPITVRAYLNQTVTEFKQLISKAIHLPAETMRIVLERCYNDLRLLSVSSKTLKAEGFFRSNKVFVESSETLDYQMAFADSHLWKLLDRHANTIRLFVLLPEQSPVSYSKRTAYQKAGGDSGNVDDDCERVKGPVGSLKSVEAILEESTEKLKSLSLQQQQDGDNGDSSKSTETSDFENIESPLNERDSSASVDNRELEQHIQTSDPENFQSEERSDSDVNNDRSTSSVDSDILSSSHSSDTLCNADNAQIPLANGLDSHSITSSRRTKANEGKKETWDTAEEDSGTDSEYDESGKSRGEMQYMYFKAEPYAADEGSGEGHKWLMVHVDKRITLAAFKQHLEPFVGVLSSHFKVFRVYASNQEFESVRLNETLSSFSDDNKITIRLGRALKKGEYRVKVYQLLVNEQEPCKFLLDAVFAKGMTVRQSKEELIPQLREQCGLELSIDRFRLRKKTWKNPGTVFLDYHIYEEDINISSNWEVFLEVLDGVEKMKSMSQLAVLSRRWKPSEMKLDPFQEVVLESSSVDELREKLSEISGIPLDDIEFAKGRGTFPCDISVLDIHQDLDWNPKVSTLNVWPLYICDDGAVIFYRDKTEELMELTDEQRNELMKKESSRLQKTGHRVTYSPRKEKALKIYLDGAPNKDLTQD

[4] = test system: p53 and p21 in HCT116 colon cancer cell lines; experiment: Western blot of p53 and p21 in isogenic HCT116 cell lines (FIG. 2A); assay type: cell-based, Human; details: isogenic HCT116: wild-type, USP7 null
Description: In 24-well plates, 0.10-0.15×10^6 (adherent) or 0.5×10^6 (suspension) cells were treated with 15 μM or 2.5 μM compounds, respectively, for 24 h in low serum prior to lysis for Western Blot analysis.

[5] = molecular target: T3, USP5 (Homo sapiens, UniProt P45974); experiment: Ub-Rho110 DUB assay, Table 2, USP5
T3 sequence (P45974 1-858): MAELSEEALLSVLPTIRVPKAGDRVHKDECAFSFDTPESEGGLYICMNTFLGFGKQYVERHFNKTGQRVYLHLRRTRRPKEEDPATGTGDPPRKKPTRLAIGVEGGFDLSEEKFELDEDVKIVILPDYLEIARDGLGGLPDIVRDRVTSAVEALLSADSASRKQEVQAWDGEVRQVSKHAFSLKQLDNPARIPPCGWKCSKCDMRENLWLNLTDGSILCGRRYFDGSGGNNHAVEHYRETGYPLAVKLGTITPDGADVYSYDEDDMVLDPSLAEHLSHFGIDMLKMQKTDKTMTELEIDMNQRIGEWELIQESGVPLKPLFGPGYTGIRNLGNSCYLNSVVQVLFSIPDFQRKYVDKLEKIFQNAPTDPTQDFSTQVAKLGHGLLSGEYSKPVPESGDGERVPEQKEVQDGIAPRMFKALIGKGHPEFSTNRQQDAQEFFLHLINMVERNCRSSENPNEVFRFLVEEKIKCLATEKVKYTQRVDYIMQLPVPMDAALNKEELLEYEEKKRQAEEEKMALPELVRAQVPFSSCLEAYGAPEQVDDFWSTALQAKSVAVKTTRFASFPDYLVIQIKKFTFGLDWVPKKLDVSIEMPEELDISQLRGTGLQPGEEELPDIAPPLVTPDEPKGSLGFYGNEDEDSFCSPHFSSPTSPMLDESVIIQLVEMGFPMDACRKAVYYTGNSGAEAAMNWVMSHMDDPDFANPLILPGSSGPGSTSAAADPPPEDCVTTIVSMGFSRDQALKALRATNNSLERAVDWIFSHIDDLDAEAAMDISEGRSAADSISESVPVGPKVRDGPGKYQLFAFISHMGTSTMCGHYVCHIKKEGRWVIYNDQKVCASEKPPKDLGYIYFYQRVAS

[6] = molecular target: T4, USP7 (Homo sapiens, UniProt Q93009); experiment: Ub-Rho110 DUB assay, Table 2, USP7; assay type: biochemical; details: for selectivity of antagonism of USP7 catalytic activity over the DUBs evaluated: conclusion from Table 2 (USP7, USP7 cat, USP47, USP5)
T4 construct: USP7, full-length, native C-Terminus, 0.2 nM

[7] = molecular target: USP7 catalytic domain (Homo sapiens, UniProt Q93009); experiment: Ub-Rho110 DUB assay, Table 2, USP7 catalytic domain; assay type: biochemical; details: read-out: Ub-Rho110 IC50, USP7 cat
Chain of USP7 catalytic domain (Q93009 214-521 limits assumed): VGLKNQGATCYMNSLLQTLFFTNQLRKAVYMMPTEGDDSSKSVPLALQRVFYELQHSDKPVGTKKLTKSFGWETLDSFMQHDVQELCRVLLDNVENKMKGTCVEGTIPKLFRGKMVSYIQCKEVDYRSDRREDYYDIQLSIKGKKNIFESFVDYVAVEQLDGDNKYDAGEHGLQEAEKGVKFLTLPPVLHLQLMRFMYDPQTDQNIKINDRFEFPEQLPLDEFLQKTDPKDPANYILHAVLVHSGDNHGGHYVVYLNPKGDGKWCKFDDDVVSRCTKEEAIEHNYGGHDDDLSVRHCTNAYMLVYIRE

T1 sequence (Q93009 whole entry): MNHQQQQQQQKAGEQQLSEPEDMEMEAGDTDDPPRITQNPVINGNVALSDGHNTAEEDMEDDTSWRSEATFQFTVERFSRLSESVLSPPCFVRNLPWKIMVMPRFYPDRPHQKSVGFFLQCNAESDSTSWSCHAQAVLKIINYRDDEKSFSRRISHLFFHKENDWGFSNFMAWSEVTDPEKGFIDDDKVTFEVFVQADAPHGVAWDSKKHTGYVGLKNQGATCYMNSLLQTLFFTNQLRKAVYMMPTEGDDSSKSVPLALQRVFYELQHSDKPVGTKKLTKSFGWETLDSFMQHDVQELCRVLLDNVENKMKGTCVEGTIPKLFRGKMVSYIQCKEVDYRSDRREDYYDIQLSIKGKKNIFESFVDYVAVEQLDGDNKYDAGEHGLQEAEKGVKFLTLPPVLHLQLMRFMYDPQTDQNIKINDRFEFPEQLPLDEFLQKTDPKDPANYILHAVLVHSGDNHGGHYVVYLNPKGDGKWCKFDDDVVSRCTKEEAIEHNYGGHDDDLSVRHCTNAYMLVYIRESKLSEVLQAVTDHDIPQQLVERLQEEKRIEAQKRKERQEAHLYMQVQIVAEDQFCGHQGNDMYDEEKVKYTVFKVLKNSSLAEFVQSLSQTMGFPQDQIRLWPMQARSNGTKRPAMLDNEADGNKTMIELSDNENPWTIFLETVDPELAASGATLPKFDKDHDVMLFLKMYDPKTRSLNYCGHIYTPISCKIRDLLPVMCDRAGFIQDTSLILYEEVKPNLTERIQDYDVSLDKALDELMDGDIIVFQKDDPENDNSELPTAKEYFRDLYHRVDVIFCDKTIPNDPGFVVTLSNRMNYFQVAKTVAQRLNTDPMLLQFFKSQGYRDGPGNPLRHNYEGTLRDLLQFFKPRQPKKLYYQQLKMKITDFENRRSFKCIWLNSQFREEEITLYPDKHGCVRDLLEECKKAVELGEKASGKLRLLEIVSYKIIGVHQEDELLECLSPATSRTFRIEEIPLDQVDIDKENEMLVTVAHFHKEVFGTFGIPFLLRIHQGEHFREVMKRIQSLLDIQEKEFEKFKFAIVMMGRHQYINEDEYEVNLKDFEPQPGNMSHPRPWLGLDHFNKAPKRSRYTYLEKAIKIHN
T4 sequence (Q93009 whole entry): as above

SMILES: CCc1c(-c2ccc(C(N)=O)cc2)cnc(N)c1-c1ccc(O)cc1 [Compound 45, 4-[6-amino-4-ethyl-5-(4-hydroxyphenyl)-3-pyridyl]benzamide]
IC50 [1]: 2.6 µM
IC50 [3]: > 200 µM
stabilization of p53 and p21 (western blot) [4]: not
IC50 [5]: > 200 µM
IC50 [6]: 2900 nM
selectivity of antagonism of USP7 catalytic activity over the DUBs evaluated [6]: selective antagonists of USP7 catalytic activity
IC50 [7]: 1300 nM

SMILES: Nc1ncc(-c2ccc(O)cc2)c(C(F)(F)F)c1-c1ccc(O)cc1 [Compound 5, 4-[6-amino-5-(4-hydroxyphenyl)-4-(trifluoromethyl)-3-pyridyl]phenol]
IC50 [1]: 7.1 µM
IC50 [2]: 6 µM

SMILES: Nc1ncc(-c2ccc(O)cc2)c(C2CC2)c1-c1ccc(O)cc1 [Compound 9, 4-[6-amino-4-cyclopropyl-5-(4-hydroxyphenyl)-3-pyridyl]phenol]
IC50 [2]: 56.6 µM

SMILES: CCc1c(-c2ccc(C(=O)NC)nc2)cnc(N)c1-c1ccc(O)cc1 [Compound 92, 5-[6-amino-4-ethyl-5-(4-hydroxyphenyl)-3-pyridyl]-N-methyl-pyridine-2-carboxamide]
IC50 [1]: 1.5 µM
stabilization of p53 and p21 (western blot) [4]: stabilize p53 and p21

SMILES: CC(C)c1c(-c2ccc(O)cc2)cnc(N)c1-c1ccc(O)cc1 [Compound 3, 4-[6-amino-5-(4-hydroxyphenyl)-4-isopropyl-3-pyridyl]phenol]
IC50 [2]: 197 µM

SMILES: CCc1c(-c2ccc(O)cc2)cnc(N)c1-c1ccc(O)cc1F [Compound 11, 4-[2-amino-4-ethyl-5-(4-hydroxyphenyl)-3-pyridyl]-3-fluoro-phenol]
IC50 [2]: > 20 µM

More lines, main results first:

IC50 [1]: 13 µM
IC50 [2]: 7.5 µM
SMILES: CCc1c(-c2ccc(O)cc2)cnc(N)c1-c1ccc(OC)cc1F [Compound 10, 4-[6-amino-4-ethyl-5-(2-fluoro-4-methoxy-phenyl)-3-pyridyl]phenol]

IC50 [3]: > 200 µM
IC50 [5]: > 200 µM
IC50 [6]: > 63300 nM
IC50 [7]: > 63300 nM
SMILES: CCc1c(-c2ccc(O)cc2)cnc(N)c1-c1ccc(COC)cc1 [Compound 25, 4-[6-amino-4-ethyl-5-[4-(methoxymethyl)phenyl]-3-pyridyl]phenol]
stabilization of p53 and p21 (western blot) [4]: stabilize p53 and p21
selectivity of antagonism of USP7 catalytic activity over the DUBs evaluated [6]: ineffective in antagonizing the activity of any DUB evaluated

IC50 [1]: 3.3 µM
IC50 [3]: > 200 µM
IC50 [6]: 1400 nM
IC50 [7]: 530 nM
SMILES: CCc1c(-c2ccc(C(=O)NC)cc2)cnc(N)c1-c1ccc(O)cc1 [Compound 81, 4-[6-amino-4-ethyl-5-(4-hydroxyphenyl)-3-pyridyl]-N-methyl-benzamide]

IC50 [2]: 35.2 µM
SMILES: CCCc1c(-c2ccc(O)cc2)cnc(N)c1-c1ccc(O)cc1 [Compound 6, 4-[6-amino-5-(4-hydroxyphenyl)-4-propyl-3-pyridyl]phenol]

IC50 [1]: 4.6 µM
IC50 [2]: 3 µM
SMILES: CCc1c(-c2ccc(O)cc2)cnc(N)c1-c1ccc(O)cc1 [Compound 2, 4-[6-amino-4-ethyl-5-(4-hydroxyphenyl)-3-pyridyl]phenol]

IC50 [2]: 7.7 µM
SMILES: Cc1c(-c2ccc(O)cc2)cnc(N)c1-c1ccc(O)cc1 [Compound 1, 4-[6-amino-5-(4-hydroxyphenyl)-4-methyl-3-pyridyl]phenol]
